Consider six molecules from PMC12225454, “Photo-clenbuterol: Optical Control of β2‑Adrenergic Receptor Signaling by Photoswitchable Ligand Efficacy” (Journal of Medicinal Chemistry, 2025).

A short description of data set [1]: Photostationary state composition by LC-MS at isosbestic point. The conditions noted are these: for PSS cis (% cis) / PSS trans (% trans): DMSO 10 mM, LC-MS at isosbestic point; for PSS cis (% cis): after 360 ± 20 nm (12d: 520 ± 12 nm); for PSS trans (% trans): after 434 ± 9 nm from PSS cis.
The nature of data set [2]: UV/vis absorption spectra before and after illumination. Format: physicochemical. The conditions noted are these: 25 μM in HBSS buffer containing 1% DMSO; for λmax (nm) PSS cis: n−π* transition, approximated from PSS cis composition; for λmax (nm) trans: π–π* transition of trans isomer.
Data set [3] is described as follows: Reversible isomerization cycles under alternating illumination (photobleaching resistance). The conditions noted are these: 25 μM in HBSS buffer containing 1% DMSO; 365 ± 11 nm / 440 ± 25 nm.
Data set [4] is described as follows: Photostationary state composition by 1H NMR. The class given is physicochemical. The text has this:
However, it has been computationally studied by Konrad et al. who calculated the n−π* band to be 444.5 nm for the cis isomer of the parent compound in the gas phase. […] The difference between calculated and experimental value could conceivably be the result of the buffer solvent not having been included in the calculations and/or the suboptimal trans to cis conversion at PSS cis (PSS cis = 66.3%). […] The PSS cis curve is slightly […], potentially enabling trans–cis isomerization at longer wavelengths. […] However, not unexpectedly given the low absorption at 560 nm, the illumination time required is much longer (hours versus 20 min with 360 nm illumination). Such longer illumination times would only be acceptable if the pharmacological differences between the isomers were much more pronounced, not requiring full conversions to PSS cis . […] The PSS cis and PSS trans values by LC–MS analysis (Figures B and S5) at the isosbestic point (376 nm) are 66.3% and 72.5%, respectively. These are similar to the 62.4% and 78.7% values obtained from ^1H NMR analysis, in which the well-resolved signal of the benzylic CH group allowed quantification of the PSS values (Figures C and S7).

Data set [5] deals with β2-AR (Homo sapiens, UniProt P07550). The data set is described as follows: FRET-based EPAC cAMP assay, ligand stimulation (agonist mode). The class given is cell-based.
Sequence of β2-AR (P07550 whole entry): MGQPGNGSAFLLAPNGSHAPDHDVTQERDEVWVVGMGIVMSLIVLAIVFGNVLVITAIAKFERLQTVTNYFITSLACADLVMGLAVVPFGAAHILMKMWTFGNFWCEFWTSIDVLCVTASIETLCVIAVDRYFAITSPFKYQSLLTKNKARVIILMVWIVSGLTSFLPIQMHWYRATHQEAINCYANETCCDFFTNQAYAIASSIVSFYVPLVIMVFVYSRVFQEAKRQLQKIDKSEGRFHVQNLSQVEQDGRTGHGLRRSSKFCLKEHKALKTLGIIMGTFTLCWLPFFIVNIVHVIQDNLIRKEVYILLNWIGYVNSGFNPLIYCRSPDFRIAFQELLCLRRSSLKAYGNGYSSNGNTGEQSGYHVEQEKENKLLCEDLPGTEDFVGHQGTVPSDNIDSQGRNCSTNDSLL
For data set [6], the target named is T1, human β2-AR (Homo sapiens, UniProt P07550, E27Q/G16R).
T1 construct: Human β2AR (GenBank: NP_000015.1) in pcDNA3.1+ expression plasmid; expressed in transfected cells; host or cells: HEK293T cells, transient transfection with PEI; membranes prepared
T1 sequence (P07550 whole entry G16R/E27Q): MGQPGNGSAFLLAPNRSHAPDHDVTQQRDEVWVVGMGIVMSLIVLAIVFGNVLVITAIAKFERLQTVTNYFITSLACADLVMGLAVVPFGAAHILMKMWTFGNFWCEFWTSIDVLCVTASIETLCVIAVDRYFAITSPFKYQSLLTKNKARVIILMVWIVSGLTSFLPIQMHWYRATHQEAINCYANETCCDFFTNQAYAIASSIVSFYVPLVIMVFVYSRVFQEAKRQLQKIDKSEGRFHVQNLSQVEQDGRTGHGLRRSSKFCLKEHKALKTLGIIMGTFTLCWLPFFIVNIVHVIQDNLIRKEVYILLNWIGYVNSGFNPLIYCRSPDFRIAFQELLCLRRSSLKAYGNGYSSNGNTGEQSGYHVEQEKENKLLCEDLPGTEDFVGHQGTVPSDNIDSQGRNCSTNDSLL
The experiment in a line: [3H]DHA competition radioligand binding on HEK293T membranes.

Where “and” joins values, the source holds several entries; their conditions need not be identical. Equal entries are not always repeated.

In the case of `CC(C)(C)NCC(O)c1ccc(/N=N/c2ccccc2)cc1` (stereo not drawn) [Compound 12a, (E)-2-(tert-Butylamino)-1-(4-(phenyldiazenyl)-phenyl)-ethan-1-ol], in data set [1], the “PSS cis (% cis)” value is reported as 94.6 ± 0.5% and the “PSS trans (% trans)” value turned out to be 71.8 ± 0.2%. Further, in data set [2], the “λmax (nm) PSS cis” value amounted to 425 nm and the “λmax (nm) trans” value is given as 323 nm.

As to `CC(C)(C)NCC(O)c1cc(Cl)c(/N=N/c2ccccc2)c(Cl)c1` (stereo not drawn) [Compound 12b, (E)-2-(tert-Butylamino)-1-(3,5-dichloro-4-(phenyldiazenyl)phenyl)-ethan-1-ol], the “resistance to photobleaching, dynamic isomerization cycles” value in data set [3] is on record as “at least 10 cycles”. Also, the “PSS cis value from 1H NMR analysis” value in data set [4] (10 mM in DMSO-d6, 360 ± 20 nm) came out at 62.4%. The “PSS trans value from 1H NMR analysis” value in data set [4] (10 mM in DMSO-d6, 434 ± 9 nm after PSS cis) stood at 78.7%. Besides, in data set [1] (560 nm illumination, LC-MS), the “PSS cis value with 560 nm light” value amounted to 74.9%. Moreover, in data set [1], the “PSS cis (% cis)” value was 66.3% and 66.3 ± 0.9%; the “PSS trans (% trans)” value was 72.5% and 72.5 ± 0.1%. Moreover, in data set [2], the “λmax (nm) PSS cis” value came out at 417 nm and the “λmax (nm) trans” value is listed as 306 nm.

Regarding `CC(C)(C)NCC(O)c1ccc(/N=N/c2ccccc2)c(Cl)c1` (stereo not drawn) [Compound 12c, (E)-2-(tert-Butylamino)-1-(3-chloro-4-(phenyldiazenyl)phenyl)-ethan-1-ol], in data set [1], the “PSS cis (% cis)” value was 97.6 ± 0.1% and the “PSS trans (% trans)” value was determined as 65.5 ± 0.2%. In addition, in data set [2], the “λmax (nm) PSS cis” value is on record as 428 nm and the “λmax (nm) trans” value was 328 nm.

Take `CC(C)(C)NCC(O)c1cc(Cl)c(/N=N/c2c(Cl)cccc2Cl)c(Cl)c1` (stereo not drawn) [Compound 12d, (E)-2-(tert-Butylamino)-1-(3,5-dichloro-4-((2,6-dichlorophenyl)-diazenyl)-phenyl)-ethan-1-ol]: in data set [1], the “PSS cis (% cis)” value was determined as 38.5 ± 0.5% and the “PSS trans (% trans)” value was found to be 94.1 ± 0.3%. In data set [2], the “λmax (nm) PSS cis” value turned out to be 441 nm and the “λmax (nm) trans” value is on record as 293 nm.

With `CC(C)(C)NCC(O)c1cc(Cl)c(/N=N/c2ccccc2)c(C#N)c1` (stereo not drawn) [Compound 12e, (E)-5-(2-(tert-Butylamino)-1-hydroxyethyl)-3-chloro-2-(phenyldiazenyl)-benzonitrile], in data set [1], the “PSS cis (% cis)” value stood at 88.7 ± 0.8% and the “PSS trans (% trans)” value was 82.0 ± 0.4%. Moreover, in data set [2], the “λmax (nm) PSS cis” value is 426 nm and the “λmax (nm) trans” value worked out at 331 nm.

On to `CC(C)(C)NCC(O)c1cc(Cl)c(N)c(C#N)c1` (stereo not drawn) [Compound 18, 2-Amino-5-(2-(tert-butylamino)-1-hydroxyethyl)-3-chlorobenzonitrile], for which, in data set [5], the pEC50 trans came to 9.0 ± 0.0 and the “α trans, intrinsic activity Emax (ligand)/Emax (isoprenaline)” value is listed as 0.8 ± 0.0. In data set [6], the inhibition constant (Ki) was 20 nM.
